Data published in ChEMBL document CHEMBL4177650, “Synthesis and biological evolution of hydrazones derived from 4-(trifluoromethyl)benzohydrazide” (Bioorg Med Chem Lett, 2017).
≈ marks a conversion by molar mass, not a printed value. Calls of active or inactive are those of the source. No cut-off for these calls is given here.

How the values were obtained:
Aspergillus fumigatus = experiment: Antifungal activity against Aspergillus fumigatus 231 after 24 to 48 hrs by microdilution broth method; assay type: functional, organism-based
MONO-MAC-6 [1] = experiment: Cytostatic activity against human MONO-MAC-6 cells incubated overnight followed by compound wash measured after 72 hrs by MTT assay; assay type: ADME, cell-based; conditions: MONO-MAC-6, 72 h
Escherichia coli [2] = experiment: Antibacterial activity against gram-negative Escherichia coli CCM 4517 after 48 hrs by microdilution broth method; assay type: functional; conditions: CCM 4517, 48 h
[3] = Selectivity index, ratio of IC50 for human HepG2 cells to MIC for Candida glabrata 20/I; assay type: toxicity; conditions: read-out: Selectivity Index
Enterococcus faecalis [4] = experiment: Antibacterial activity against gram-positive Enterococcus faecalis J 14365/08 after 24 hrs by microdilution broth method; assay type: functional; conditions: J 14365/08, 24 h
Mycobacterium avium [5] = experiment: Antimycobacterial activity against Mycobacterium avium 330/88 after 21 days by micromethod; assay type: functional; conditions: 330/88, 504 h
Escherichia coli [6] = experiment: Antibacterial activity against gram-negative Escherichia coli CCM 4517 after 24 hrs by microdilution broth method; assay type: functional; conditions: CCM 4517, 24 h
Staphylococcus aureus [7] = experiment: Antibacterial activity against gram-positive methicillin-resistant Staphylococcus aureus H 5996/08 after 24 hrs by microdilution broth method; assay type: functional; conditions: H 5996/08, 24 h
Pichia kudriavzevii [8] = experiment: Antifungal activity against Candida krusei E28 after 24 hrs by microdilution broth method; assay type: functional; conditions: E28, 24 h
Mycobacterium kansasii [9] = experiment: Antimycobacterial activity against Mycobacterium kansasii 6509/80 after 7 days by micromethod; assay type: functional; conditions: 6509/80, 168 h
HepG2 [10] = experiment: Cytotoxicity against human HepG2 cells after overnight incubation by MTT assay; assay type: cell-based
[11] = system: Mycobacterium tuberculosis; experiment: Antimycobacterial activity against Mycobacterium tuberculosis H37Rv 331/88 after 21 days by micromethod; assay type: functional; conditions: H37Rv 331/88, 504 h
Pseudomonas aeruginosa = experiment: Antibacterial activity against gram-negative Pseudomonas aeruginosa CCM 1961 after 48 hrs by microdilution broth method; assay type: functional, organism-based
[12] = Cytotoxicity against mouse bone marrow macrophages after overnight incubation by MTT assay; conditions: BMDM
Staphylococcus aureus [13] = experiment: Antibacterial activity against gram-positive Staphylococcus aureus CCM 4516/08 after 48 hrs by microdilution broth method; assay type: functional; conditions: CCM 4516/08, 48 h
Mycobacterium kansasii [14] = experiment: Antimycobacterial activity against Mycobacterium kansasii 6509/96 after 21 days by micromethod; assay type: functional; conditions: 6509/96, 504 h
Staphylococcus aureus [15] = experiment: Antibacterial activity against gram-positive methicillin-resistant Staphylococcus aureus H 5996/08 after 48 hrs by microdilution broth method; assay type: functional; conditions: H 5996/08, 48 h
[16] = system: Trichophyton mentagrophytes; experiment: Antifungal activity against Trichophyton mentagrophytes 445 after 72 hrs by microdilution broth method; assay type: functional; conditions: Trichophyton mentagrophytes, 445, 72 h
Staphylococcus aureus [17] = experiment: Antibacterial activity against gram-positive Staphylococcus aureus CCM 4516/08 after 24 hrs by microdilution broth method; assay type: functional; conditions: CCM 4516/08, 24 h
Klebsiella pneumoniae [18] = experiment: Antibacterial activity against extended spectrum beta-lactamase-positive Klebsiella pneumoniae J 14368/08 after 24 to 48 hrs by microdilution broth method; assay type: functional, organism-based
Trichosporon asahii = experiment: Antifungal activity against Trichosporon asahii 1188 after 24 to 48 hrs by microdilution broth method; assay type: functional, organism-based
Mycobacterium kansasii [19] = experiment: Antimycobacterial activity against Mycobacterium kansasii 6509/80 after 21 days by micromethod; assay type: functional; conditions: 6509/80, 504 h
[20] = system: Trichophyton mentagrophytes; experiment: Antifungal activity against Trichophyton mentagrophytes 445 after 120 hrs by microdilution broth method; assay type: functional; conditions: Trichophyton mentagrophytes, 445, 120 h
Mycobacterium kansasii [21] = experiment: Antimycobacterial activity against Mycobacterium kansasii 6509/96 after 7 days by micromethod; assay type: functional; conditions: 6509/96, 168 h
Candida albicans = experiment: Antifungal activity against Candida albicans ATCC 44859 after 24 to 48 hrs by microdilution broth method; assay type: functional, organism-based
Klebsiella pneumoniae [22] = experiment: Antibacterial activity against gram-negative Klebsiella pneumoniae D 11750/08 after 24 to 48 hrs by microdilution broth method; assay type: functional, organism-based
Mycobacterium avium [23] = experiment: Antimycobacterial activity against Mycobacterium avium 330/88 after 14 days by micromethod; assay type: functional; conditions: 330/88, 336 h
[24] = Selectivity index, ratio of IC50 for human HepG2 cells to MIC for Trichophyton mentagrophytes 445; assay type: toxicity; conditions: read-out: Selectivity Index
Nakaseomyces glabratus [25] = experiment: Antifungal activity against Candida glabrata 20/I after 24 hrs by microdilution broth method; assay type: functional
[26] = system: Mycobacterium tuberculosis; experiment: Antimycobacterial activity against Mycobacterium tuberculosis H37Rv 331/88 after 14 days by micromethod; assay type: functional; conditions: H37Rv 331/88, 336 h
Lichtheimia corymbifera = experiment: Antifungal activity against Absidia corymbifera 272 after 24 to 48 hrs by microdilution broth method; assay type: functional, organism-based
Mycobacterium kansasii [27] = experiment: Antimycobacterial activity against Mycobacterium kansasii 6509/80 after 14 days by micromethod; assay type: functional; conditions: 6509/80, 336 h
Nakaseomyces glabratus [28] = experiment: Antifungal activity against Candida glabrata 20/I after 48 hrs by microdilution broth method; assay type: functional
MONO-MAC-6 [29] = experiment: Cytotoxicity against human MONO-MAC-6 cells after overnight incubation by MTT assay; assay type: functional, cell-based
[30] = system: Staphylococcus epidermidis; experiment: Antibacterial activity against gram-positive Staphylococcus epidermidis H 6966/08 after 48 hrs by microdilution broth method; assay type: functional; conditions: H 6966/08, 48 h
Candida tropicalis [31] = experiment: Antifungal activity against Candida tropicalis 156 after 48 hrs by microdilution broth method; assay type: functional; conditions: Candida tropicalis, 156, 48 h
Candida tropicalis [32] = experiment: Antifungal activity against Candida tropicalis 156 after 24 hrs by microdilution broth method; assay type: functional; conditions: Candida tropicalis, 156, 24 h
Mycobacterium kansasii [33] = experiment: Antimycobacterial activity against Mycobacterium kansasii 6509/96 after 14 days by micromethod; assay type: functional; conditions: 6509/96, 336 h
Enterococcus faecalis [34] = experiment: Antibacterial activity against gram-positive Enterococcus faecalis J 14365/08 after 48 hrs by microdilution broth method; assay type: functional; conditions: J 14365/08, 48 h
HepG2 [35] = experiment: Cytostatic activity against human HepG2 cells incubated overnight followed by compound wash measured after 72 hrs by MTT assay; assay type: ADME, cell-based; conditions: HepG2, 72 h
Pichia kudriavzevii [36] = experiment: Antifungal activity against Candida krusei E28 after 48 hrs by microdilution broth method; assay type: functional; conditions: E28, 48 h
[37] = system: Staphylococcus epidermidis; experiment: Antibacterial activity against gram-positive Staphylococcus epidermidis H 6966/08 after 24 hrs by microdilution broth method; assay type: functional; conditions: H 6966/08, 24 h
[38] = Selectivity index, ratio of IC50 for human HepG2 cells to MIC for Mycobacterium tuberculosis H37Rv 331/88; assay type: toxicity; conditions: read-out: Selectivity Index
[39] = Selectivity index, ratio of IC50 for human HepG2 cells to MIC for Mycobacterium kansasii 6509/96; assay type: toxicity; conditions: read-out: Selectivity Index
[40] = Selectivity index, ratio of IC50 for human HepG2 cells to MIC for gram-positive Staphylococcus aureus CCM 4516/08; assay type: toxicity; conditions: read-out: Selectivity Index
[41] = Selectivity index, ratio of IC50 for human HepG2 cells to MIC for Mycobacterium kansasii 6509/80; assay type: toxicity; conditions: read-out: Selectivity Index
[42] = Selectivity index, ratio of IC50 for human HepG2 cells to MIC for Mycobacterium avium 330/88; assay type: toxicity; conditions: read-out: Selectivity Index

O=C(N/N=C/c1ccccc1O)c1ccc(C(F)(F)F)cc1
Activity (Aspergillus fumigatus): inactive | IC50 (MONO-MAC-6 [1]): 1700 nM | MIC (Escherichia coli [2]): 500 µM (≈ 154 µg/mL) | selectivity ratio [3]: > 6.4 | MIC (Enterococcus faecalis [4]): 250 µM (≈ 77.1 µg/mL) | MIC (Mycobacterium avium [5]): 250 µM (≈ 77.1 µg/mL) | MIC (Escherichia coli [6]): 500 µM (≈ 154 µg/mL) | MIC (Staphylococcus aureus [7]): 500 µM (≈ 154 µg/mL) | MIC (Pichia kudriavzevii [8]): > 125 µM | MIC (Mycobacterium kansasii [9]): 250 µM (≈ 77.1 µg/mL) | IC50 (HepG2 [10]): > 100 µM | MIC [11]: 250 µM (≈ 77.1 µg/mL) | Activity (Pseudomonas aeruginosa): inactive | IC50 [12]: > 100 µM | MIC (Staphylococcus aureus [13]): > 500 µM | MIC (Mycobacterium kansasii [14]): 250 µM (≈ 77.1 µg/mL) | MIC (Staphylococcus aureus [15]): > 500 µM | MIC [16]: 7.81 µM (≈ 2.41 µg/mL) | MIC (Staphylococcus aureus [17]): 500 µM (≈ 154 µg/mL) | Activity (Klebsiella pneumoniae [18]): inactive | Activity (Trichosporon asahii): inactive | MIC (Mycobacterium kansasii [19]): 250 µM (≈ 77.1 µg/mL) | MIC [20]: 15.6 µM (≈ 4.82 µg/mL) | MIC (Mycobacterium kansasii [21]): 250 µM (≈ 77.1 µg/mL) | Activity (Candida albicans): inactive | Activity (Klebsiella pneumoniae [22]): inactive | MIC (Mycobacterium avium [23]): 125 µM (≈ 38.5 µg/mL) | selectivity ratio [24]: > 6.4 | MIC (Nakaseomyces glabratus [25]): 3.9 µM (≈ 1.2 µg/mL) | MIC [26]: 125 µM (≈ 38.5 µg/mL) | Activity (Lichtheimia corymbifera): inactive | MIC (Mycobacterium kansasii [27]): 250 µM (≈ 77.1 µg/mL) | MIC (Nakaseomyces glabratus [28]): 15.6 µM (≈ 4.82 µg/mL) | IC50 (MONO-MAC-6 [29]): 2280 nM | MIC [30]: 500 µM (≈ 154 µg/mL) | MIC (Candida tropicalis [31]): > 125 µM | MIC (Candida tropicalis [32]): > 125 µM | MIC (Mycobacterium kansasii [33]): 250 µM (≈ 77.1 µg/mL) | MIC (Enterococcus faecalis [34]): 250 µM (≈ 77.1 µg/mL) | IC50 (HepG2 [35]): 6.2 µM | MIC (Pichia kudriavzevii [36]): > 125 µM | MIC [37]: 250 µM (≈ 77.1 µg/mL)

O=C(N/N=C/c1ccc(Cl)cc1)c1ccc(C(F)(F)F)cc1
Activity (Aspergillus fumigatus): inactive | IC50 (MONO-MAC-6 [1]): > 100000 nM | MIC (Escherichia coli [2]): > 125 µM | MIC (Enterococcus faecalis [4]): 62.5 µM (≈ 20.4 µg/mL) | MIC (Mycobacterium avium [5]): > 125 µM | MIC (Escherichia coli [6]): > 125 µM | selectivity ratio [38]: > 6.25 | MIC (Staphylococcus aureus [7]): 62.5 µM (≈ 20.4 µg/mL) | selectivity ratio [39]: > 6.25 | MIC (Pichia kudriavzevii [8]): 62.5 µM (≈ 20.4 µg/mL) | MIC (Mycobacterium kansasii [9]): 16 µM (≈ 5.23 µg/mL) | IC50 (HepG2 [10]): > 100 µM | selectivity ratio [40]: > 1.6 | MIC [11]: 16 µM (≈ 5.23 µg/mL) | Activity (Pseudomonas aeruginosa): inactive | IC50 [12]: 7.05 µM | MIC (Staphylococcus aureus [13]): 62.5 µM (≈ 20.4 µg/mL) | MIC (Mycobacterium kansasii [14]): 16 µM (≈ 5.23 µg/mL) | MIC (Staphylococcus aureus [15]): 62.5 µM (≈ 20.4 µg/mL) | MIC [16]: 125 µM (≈ 40.8 µg/mL) | selectivity ratio [41]: > 6.25 | MIC (Staphylococcus aureus [17]): 62.5 µM (≈ 20.4 µg/mL) | Activity (Klebsiella pneumoniae [18]): inactive | Activity (Trichosporon asahii): inactive | MIC (Mycobacterium kansasii [19]): 16 µM (≈ 5.23 µg/mL) | MIC [20]: 125 µM (≈ 40.8 µg/mL) | selectivity ratio [42]: > 6.25 | MIC (Mycobacterium kansasii [21]): 16 µM (≈ 5.23 µg/mL) | Activity (Candida albicans): inactive | Activity (Klebsiella pneumoniae [22]): inactive | MIC (Mycobacterium avium [23]): > 125 µM | MIC (Nakaseomyces glabratus [25]): > 125 µM | MIC [26]: 16 µM (≈ 5.23 µg/mL) | Activity (Lichtheimia corymbifera): inactive | MIC (Mycobacterium kansasii [27]): 16 µM (≈ 5.23 µg/mL) | MIC (Nakaseomyces glabratus [28]): > 125 µM | IC50 (MONO-MAC-6 [29]): > 100000 nM | MIC [30]: 62.5 µM (≈ 20.4 µg/mL) | MIC (Candida tropicalis [31]): 125 µM (≈ 40.8 µg/mL) | MIC (Candida tropicalis [32]): 125 µM (≈ 40.8 µg/mL) | MIC (Mycobacterium kansasii [33]): 16 µM (≈ 5.23 µg/mL) | MIC (Enterococcus faecalis [34]): > 125 µM | IC50 (HepG2 [35]): > 100 µM | MIC (Pichia kudriavzevii [36]): 62.5 µM (≈ 20.4 µg/mL) | MIC [37]: 31.2 µM (≈ 10.2 µg/mL)
